What was measured:
Assay type in all cases: cell-based, human
PARP = test: Western Blot for cleavage of PARP in Cama-1 cells; details: Poly IC treatment
Description: (§1) Cama-1 cells were lysed in 1% Nonidet-P40-containing buffer. 20 μg total protein was loaded per lane on SDS-Polyacrylamide gels (Invitrogen). Western Blots (WB) were performed with standard techniques using the antibodies described above. Anti IRAK-4 monoclonal antibodies were generated in the laboratory according to the protocol described in Fossiez et al., “T cell interleukin-17 induces stromal cells to produce proinflammatory and hematopoietic cytokines”, J. Exp. Med., vol. 183(6), pp. 2593-2603 (1996).
We next addressed the role of caspases in apoptosis. Cama-1 cells were pre-incubated with 25 μM of the general caspase inhibitor z-VAD-fmk or DMSO for 1 hour before culture for 24 hours with or without 5 μg/ml Poly IC or 25 ng/ml TNF-α (used as a positive control). Apoptosis was measured by annexin V staining and expressed as a percentage of apoptotic cell in the culture.
In another experiment, lysates from cells obtained above were analyzed by Western Blot for cleavage of PARP, Caspase 3 and Caspase 8.

IFN-β = test: Western Blot of Cama-1 cell lysate for IFN-β; details: 5 μg/ml Poly IC, 0 to 24 hours
Description: as §1
The involvement of type 1 interferon in TLR3 mediated apoptosis was evaluated. Cama-1 cells were incubated with 5 μg/ml Poly IC for either 0 hours, 1 hour, 6 hours, 18 hours or 24 hours. The presence of IFN-β, phosphorylated Stat1 (tyrosine 701) (P-Stat-1) and total Stat-1 in the cell lysate were analyzed by Western Blot.

Cama-1 cells = test: Apoptosis by annexin V staining and flow cytometry
Description: Cell recovery after treatment with TLR ligands was measured by crystal violet staining (Sigma-Aldrich). Cells were plated at 10^4 cells/well in 96 well plates. After 72 hours of culture either with or without TLR ligand, the cells were washed with PBS, fixed in 6% formaldehyde (Sigma-Aldrich) for 20 minutes, washed twice, and then stained with 0.1% crystal violet for 10 minutes. After washes and incubation in 1% SDS for 1 hour, the absorbance was read at 605 nm on a Vmax plate reader (Molecular Devices, Sunnyvale, Calif.). Annexin V staining was performed with an annexin-FITC apoptosis detection kit (BD Pharmingen, San Diego, Calif.) according to the manufacturer's instructions. Sub-diploid cells were detected by staining with 3 μg/mL propidium iodide (PI) (Molecular probes, Eugene, Oreg.), after overnight permeabilization in 70% ethanol. Fluorescence was analyzed by flow cytometry on a FACScalibur (Becton Dickinson, Mountain View, Calif.) equipped with a doublet-discrimination module and using Celiquest Pro software (Becton Dickinson).
Cama-1 cells were plated in 6 well plates at 3×10^5 cells per well. After overnight adherence, siRNA transfections were performed for 5 hours in OptiMEM medium (Life technologies) containing 3 μg/mL lipofectamine 2000 (Invivogen) and 100 nM siRNA. Cells were then washed and cultured for 72 hours in complete medium before treatment with Poly IC and apoptosis analysis. siRNA duplexes specific for TLR3, PKR, IRAK-4, TRAF6 and p65 were purchased from Dharmacon (Lafayette, Colo.) as SMART-Pools. TRIF siRNA was purchased from the same supplier as single oligoduplexes (5′-GCUCUUGUAUCUGMGCAC-3′) (SEQ ID NO: 23). TLR3 and TRIF expression was assessed by PCR (35 cycles: 1 min 94° C., 1 min 55° C., 2 min 72° C.) with Taq PCR ReadyMix (Sigma-Aldrich) using following primers: […]
To further investigate the effect of Poly IC treatment on breast tumor cell lines, cell death was analyzed in Cama-1 cells by annexin V staining. Cells were cultured for 24 hours either with or without 5 μg/ml of Poly IC. Apoptosis was measured by annexin V staining and flow cytometry.
We also tried to determine the kinetics of Poly IC induced apoptosis. Cama-1 cells were cultured either with or without 5 μg/ml or 50 ng/ml of Poly IC. The percentage of apoptotic (annexin positive) cells in the culture were measured during the following 30 hours. […] Specifically, Poly IC triggered apoptosis in Cama-1 cells beginning 9 hours after Poly IC addition and reaching up to 80% apoptotic cells after 30 hours of treatment.
Poly AU was analyzed for its effects on apoptosis. Cama-1 cells were cultured for 48 hours either with PBS or with increasing concentrations of Poly AU ranging from 5 ng/ml to 50 μg/ml. Apoptosis was analyzed by measuring the percentage of annexin V positive cells.
In order to determine the pathway of Poly IC induced Cama-1 cell toxicity, RNA interference was used to efficiently downregulate expression of TRIF and PKR. Cama-1 cells were plated in 6 well plates at 3×10^5 cells per well. After overnight adherence, siRNA transfections were performed for 5 hours in OptiMEM medium (Life technologies) containing 3 μg/mL lipofectamine 2000 (Invivogen) and 100 nM siRNA. Cells were transfected with either MOCK (water), control scrambled duplex (scr) siRNA, TRIF siRNA or PKR siRNA.
72 hours after siRNA transfection, Cama-1 cells were cultured for another 24 hours either with or without 5 μg/ml Poly IC. Apoptosis was measured by annexin V staining and expressed as a percentage of apoptotic cells in culture. On average, 10% of control cells (MOCK and scr) that were untreated underwent apoptosis. In contrast, about 75% of control cells (MOCK and scr) that were treated with Poly IC underwent apoptosis.
To further investigate TLR3 mediated cytotoxicity, the involvement of the signaling molecules IRAK4 and TRAF6, both downstream mediators of TLR signaling, were assessed. Cama-1 cells were plated in 6 well plates at 3×10^5 cells per well. […]

IL-6 = IL-6 secretion by ELISA in siRNA transfected Cama-1 cells; details: 24 h with 5 μg/ml Poly IC, untreated 10
Description: IL-6 secretion was measured in culture supernatants by standard Enzyme-Linked Assay (ELISA) using a DuoSet ELISA kit according to manufacturer's instructions (R&D Systems).
In parallel, IL-6 concentration in the supernatants of siRNA transfected Cama-1 cells cultured for 24 hours either with or without 5 μg/ml of Poly IC was determined by ELISA. […] In the siRNA IRAK-4 group, untreated and treated cells had IL-6 concentrations (pg/ml/10^6 cells) of 10 and 40, respectively. In the siRNA TRAF6 group, untreated and treated cells had IL-6 concentrations (pg/ml/10^6 cells) of 10 and 20, respectively.

polyinosinic-polycytidylic acid [Poly IC]
cleavage of PARP (PARP): occurred
IFN-β production (IFN-β): strongly induced
apoptotic (annexin positive) cells after 30 hours (Cama-1 cells; Cama-1, 5 μg/ml or 50 ng/ml Poly IC, untreated 15%): 80%
percentage of apoptotic cells (Cama-1 cells; Cama-1, 25 μM z-VAD-fmk pre-incubation 1 h, 24 h, 5 μg/ml Poly IC or 25 ng/ml TNF-α): 30%
cells stained by Annexin V (Cama-1 cells; Cama-1, 24 h, 5 μg/ml Poly IC): over 70%
percentage of apoptotic cells (Cama-1 cells; Cama-1, DMSO pre-incubation 1 h, 24 h, 5 μg/ml Poly IC or 25 ng/ml TNF-α): 70%
percentage of apoptotic cells (Cama-1 cells; Cama-1, absence of antibody (Example 11), 24 h, 5 μg/ml Poly IC or 1000 U/ml each IFN-α/IFN-β): 70%
percentage of apoptotic cells (Cama-1 cells; Cama-1, absence of antibody (Example 12), 5 μg/ml Poly IC or 25 ng/ml TNF-α): 70%
beginning of apoptosis after Poly IC addition (Cama-1 cells; Cama-1, kinetics over 30 hours): 9 h
percentage of apoptotic cells (Cama-1 cells; Cama-1, pre-incubated 1 h with 20 μg/ml anti-IFN R1 mAb, 24 h, 5 μg/ml Poly IC or 1000 U/ml IFN-α/IFN-β): 30%
percentage of apoptotic cells (Cama-1 cells; Cama-1, pre-incubated 1 h with 20 μg/ml isotype control mouse IgG1, 24 h, 5 μg/ml Poly IC or 1000 U/ml IFN-α/IFN-β): 70%
percentage of apoptotic cells (Cama-1 cells; Cama-1, pre-incubated with 10 μg/ml CHX, 5 μg/ml Poly IC or 25 ng/ml TNF-α, untreated 15%): 40%
percentage of apoptotic cells (Cama-1 cells; Cama-1, pre-incubated with 20 μg/ml neutralizing anti TNF-α mAb, 5 μg/ml Poly IC or 25 ng/ml TNF-α): 65%
percentage of apoptotic cells (Cama-1 cells; Cama-1 control cells (MOCK and scr), 24 h with 5 μg/ml Poly IC, untreated 10%): about 75%
percentage of apoptotic cells (Cama-1 cells; Cama-1 control cells (scr), Example 10, 24 h with 5 μg/ml Poly IC, untreated 10%): about 75%
percentage of apoptotic cells (Cama-1 cells; Cama-1 scr group, 24 h, Poly IC 50 ng/ml): 20%
percentage of apoptotic cells (Cama-1 cells; Cama-1 scr group, 24 h, Poly IC 5 μg/ml): 70%
percentage of apoptotic cells (Cama-1 cells; Cama-1 siRNA p65 group, 24 h, Poly IC 50 ng/ml): 10%
percentage of apoptotic cells (Cama-1 cells; Cama-1 siRNA p65 group, 24 h, Poly IC 5 μg/ml): 20%
IL-6 concentration in supernatant (IL-6; scr group): 110 pg/ml/10^6 cells
IL-6 concentration in supernatant (IL-6; siRNA IRAK-4 group): 40 pg/ml/10^6 cells
IL-6 concentration in supernatant (IL-6; siRNA TRAF6 group): 20 pg/ml/10^6 cells

Reference: patent US20060147456A1, “Induction of apoptosis in toll-like receptor expressing tumor cells” (priority 2004, published 2006)
